Experimental data reported in ChEMBL document CHEMBL3430912, “GSK Tres Cantos Anti-Kinetoplastid Screening (TCAKS) Data”.

Assays:
NIH3T3 = experiment: GSK_TCAKS: pIC50 NIH 3T3 cell line viability assay using luminiscence. Tissue culture surface treated assay plates (1536-well) were used. […] The 100% cells survival control was determined exposing the host-cells to a 0.5% DMSO concentration, whereas the 100% toxicity control was achieved by seeding the cells in presence of Amphotericin B at 50uM. Plates were incubated for four days at 37C, 5% CO2. The assay readout was developed by addition of 5uL of CellTiter-Glo Reagent following the manufacturer's instructions. Luminiscence was measured using a ViewLux.; assay type: functional, cell-based; conditions: Mus musculus, NIH3T3, 96 h
Trypanosoma cruzi [1] = experiment: GSK_TCAKS: pIC50 Trypanosoma cruzi viability assay using beta-GAL activity. This assay was run at single shot at 5uM compound concentration per well. The biological reagents consisted of NIH-3T3 host cells and trypomastigotes parasitic cells; both cell types were set to a 3.3 * 10^5 cells/mL dilution in assay DMEM by means of a CASY cell counter device using a 60um capillary. 6 uL of the mixture were dispensed per well (about 1 * 10^3 host-cells and 1 * 10^3 parasites) with a Multidrop Combi dispenser. […] In all wells, the percentage of DMSO never exceeded 0.5%. Plates incubated for four days at 37C, 5% CO2. The substrate used for the assay fluorescence intensity (FLINT) readout was resorufin-beta-D-galactopiranoside (Sigma-Aldrich) at 5uM per well. It was diluted in PBS supplemented with the soft detergent Igepal (Fluka).; assay type: functional, organism-based, Mus musculus; conditions: Tulahuen, NIH3T3
Trypanosoma cruzi [2] = experiment: (§1) GSK_TCAKS: pIC50 H2C9 Imaging: H9c2 Host Cardiomyocytes. […] Cells were then washed once with PBS before infection. T. cruzi trypomastigotes, collected at days 5 to 8 after infection from LLC-MK2 parasite infected cultures, were allowed to swim out for 4h at 37C from a centrifuged pellet (2,500 rpm/10 min/room temperature). Trypomastigotes were then collected and counted in a CASY Cell Counter. Trypomastigotes, in supplemented DMEM, were added to H9c2 cultures in a multiplicity of infection of 1 and incubated for 18 h. Cells were washed once with PBS before incubation of the infected H9c2 monolayer with trypsin (Life-Technologies) to detach cells from the flask. Cells were counted in a CASY Cell Counter using a 150 um capillary and their density set at 5 * 10^4 cells per mL in supplemented assay DMEM. Infected H9c2 were dispensed into 384-well poly-lysine coated assay plates at 50uL per well using a Multidrop Combi dispenser. After seeding them, the plates were incubated at 37C, 5% CO2 for 72h. Cultures were then fixed and stained by addition of 50 uL of a solution containing 8% formaldehyde and 4 uM DRAQ5 DNA dye (BioStatus, UK) per well. […] Five images were collected per well for reliable statistical analysis. Automated image analysis was performed with a script developed on Acapella High Content Imaging and Analysis Software (PerkinElmer). Output: Number of H9c2 Host Cardiomyocytes nuclei to determine drug-related cytotoxicity.; assay type: functional, organism-based, Rattus norvegicus; conditions: H9c2, 4 h
Trypanosoma cruzi [3] = experiment: as §1, with “Trypanosoma cruzi” for “H2C9”, “Amastigotes/Cell.” for “H9c2 Host Cardiomyocytes.”, “number” for “Number”, “amastigotes per cell as infection level measurement.” for “H9c2 Host Cardiomyocytes nuclei to determine drug-related cytotoxicity.”; assay type: functional, organism-based, Rattus norvegicus; conditions: H9c2, 4 h
Trypanosoma cruzi [4] = experiment: as §1, with “Trypanosoma cruzi” for “H2C9”, “Infected Cells.” for “H9c2 Host Cardiomyocytes.”, “percentage” for “Number”, “infected cells per well as a second infection marker.” for “H9c2 Host Cardiomyocytes nuclei to determine drug-related cytotoxicity.”; assay type: functional, organism-based, Rattus norvegicus; conditions: H9c2, 4 h
Leishmania donovani [5] = experiment: (§2) GSK_TCAKS: pIC50 Leishmania donovani Imaging: Infected Macrophages. Assay plates (384-well) were prepared by adding 250nL of compound to each well. For single shot assay, the final compound concentration was 5 uM. […] Automated image analysis was performed with a script developed on Acapella High Content Imaging and Analysis Software (PerkinElmer). Output: Percent of infected macrophage cells were reported for each well.; assay type: functional, organism-based, Homo sapiens; conditions: THP-1
[6] = GSK_TCAKS: pIC50 HepG2 human cell line viability assay using luminiscence. […] Seeding density was checked to ensure that new mono-layers were not more than 50% confluent at the time of harvesting. Cell suspension was added to 500 mL of the same medium at a final density of 1.2 * 10^5 cells/mL. This cell suspension was dispensed (25 uL, 3000 cells per well) into 384-well clear-bottom plates using a Multidrop Combi dispenser. Prior to addition of the cell suspension, the screening compounds (250 nL) were pre-dispensed into the plates with an Echo liquid handler. Plates were incubated for 48 h at 37C, 5% CO2. After incubation, plates equilibrated at room temperature for 30 min before proceeding to develop the luminescent signal. The signal developer, CellTiter-Glo Reagent, was allowed to equilibrate at room temperature for 30 min and added to the plates (25uL per well) using a Multidrop Combi dispenser. Plates were left for 10 min at room temperature for stabilization and then read using a ViewLux.; assay type: toxicity, cell-based
Leishmania donovani [7] = experiment: as §2, with “Amastigotes/Macrophages.” for “Infected Macrophages.”, “Average number” for “Percent”, “amastigotes per” for “infected”, “cell” for “cells”; assay type: functional, organism-based, Homo sapiens; conditions: THP-1
[8] = target: Sterol 14-alpha demethylase (Trypanosoma cruzi (strain CL Brener), UniProt Q7Z1V1); experiment: GSK_TCAKS: pIC50 CYP51 from Trypanosoma cruzi.; assay type: functional
Chain of Sterol 14-alpha demethylase (Q7Z1V1 whole entry): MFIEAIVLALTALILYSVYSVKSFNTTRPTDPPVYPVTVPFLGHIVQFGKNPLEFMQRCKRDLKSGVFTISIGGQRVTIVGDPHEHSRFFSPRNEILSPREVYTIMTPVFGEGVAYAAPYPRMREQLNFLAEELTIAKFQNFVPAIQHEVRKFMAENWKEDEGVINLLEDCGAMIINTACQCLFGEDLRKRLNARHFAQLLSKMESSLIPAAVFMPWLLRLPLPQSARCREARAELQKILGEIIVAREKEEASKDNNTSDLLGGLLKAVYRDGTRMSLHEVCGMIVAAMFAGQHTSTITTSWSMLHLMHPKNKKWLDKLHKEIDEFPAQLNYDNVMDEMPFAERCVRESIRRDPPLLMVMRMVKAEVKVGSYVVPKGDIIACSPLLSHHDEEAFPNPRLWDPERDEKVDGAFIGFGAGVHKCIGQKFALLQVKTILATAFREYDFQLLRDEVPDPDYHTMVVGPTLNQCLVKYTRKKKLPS

[9] = system: Trypanosoma brucei brucei; experiment: GSK_TCAKS: pIC50 Trypanosoma brucei viability assay using fluorescence intensity. Assay plates (1536-well) were prepared by dispensing 25nL of compound solution per well using an Echo acoustic dispenser (Labcyte).; assay type: functional, organism-based; conditions: Lister 427, 2 h
[10] = system: Trypanosoma brucei brucei; experiment: GSK_TCAKS: pIC50 Trypanosoma brucei viability assay using luminiscence. Assay plates (1536-well) were prepared. T. brucei cultures were harvested and counted in a CASY cell counter. A parasite suspension was prepared at a final concentration of 5 * 10^4 cells/mL in complete HMI9 medium and 6uL was dispensed to all wells containing compounds using a Multidrop Combi dispenser. 6uL of HMI9 media with 0.4% DMSO were dispensed to control columns. Plates were incubated for 24 h at 37C, 5% CO2 then tempered for 10 min at room temperature. ATP content was quantified by adding 4 uL of CellTiter-Glo Reagent (Promega) according to the manufacturer's instructions. Luminescence was measured using a ViewLux.; assay type: functional, organism-based; conditions: Lister 427, CASY
Leishmania donovani [11] = experiment: GSK_TCAKS: pIC50 Leishmania donovani viability assay using fluorescence intensity. Assay plates (1536-well) were prepared by adding 30nL per well of compound. For single shot assay, the final compound concentration was 5uM. […] Briefly, eGFP LdBOB axenic amastigotes were harvested, fixed and counted in a CASY cell counter (Roche-Applied Science). A final concentration of 1.5 * 10^5 cells per well were prepared in amastigote media containing 500 U/mL penicillin/streptomycin (Invitrogen) and 6uL was dispensed to each experimental well using a Multidrop Combi dispenser (Thermo Scientific). 6uL of assay media was dispensed to control columns used as reference for 100% compound response. Following incubation for 72 h at 37C, 5% CO2, 2 uL of resazurin was added to each well at a final concentration of 0.5 mM in phosphate buffered saline (PBS) with IGEPAL (Sigma-Aldrich), 0.05% (v/v).; assay type: functional, organism-based
Leishmania donovani [12] = experiment: as §2, with “THP-1 Host” for “Infected”, “THP-1 cell count” for “Percent of infected macrophage cells”; assay type: functional, organism-based, Homo sapiens

| SMILES | IC50 (NIH3T3) [µM] | IC50 (Trypanosoma cruzi [1]) [µM] | IC50 (Trypanosoma cruzi [2]) [µM] | IC50 (Trypanosoma cruzi [3]) [µM] | IC50 (Trypanosoma cruzi [4]) [µM] | IC50 (Leishmania donovani [5]) [µM] | IC50 at 48 h [6] [µM] | IC50 (Leishmania donovani [7]) [µM] | IC50 [8] [µM] | IC50 [9] [µM] | IC50 [10] [µM] | IC50 (Leishmania donovani [11]) [µM] | IC50 (Leishmania donovani [12]) [µM] |
| --- | --- | --- | --- | --- | --- | --- | --- | --- | --- | --- | --- | --- | --- |
| COc1ccc(-c2nc3ncccc3o2)cc1NC(=O)c1cccs1 | > 50.1 | 2 | > 50.1 | 2 | 2.51 | > 50.1 | > 100 | > 50.1 | > 100 | 1.26 | 2.51 | 5.01 | 20 |
| COc1ccc(C2CC(c3ccccc3Cl)=NN2C(=O)CNC(=O)C2CCC2)cc1 (stereo not drawn) | 31.6 | 2.82 | > 50.1 | 1 | 1.58 | > 50.1 | > 100 | > 50.1 | 50.1 | 0.316 | 0.501 | > 50.1 | > 50.1 |
| CCC(=O)Nc1ccc(-c2nc3ccc(Cl)cc3[nH]2)cc1 | > 50.1 | 2 | > 50.1 | 0.501 | 1.58 | > 50.1 | > 100 | > 50.1 | > 100 | 6.31 | > 39.8 | > 50.1 | > 50.1 |
| N#Cc1cc([N+](=O)[O-])ccc1NC1CCCCCC1 | > 50.1 | 2.51 | > 50.1 | 1.26 | 2 | > 50.1 | > 100 | > 50.1 | > 100 | 2.51 | 3.16 | > 50.1 | > 50.1 |
| Cc1nnnn1-c1cccc(C(=O)N2CCC[C@@]3(C)c4ncncc4CCC23)c1 (stereo partly drawn) | > 50.1 | 0.631 | > 50.1 | 0.316 | 0.316 | > 50.1 | > 100 | 6.31 | 25.1 | > 39.8 | > 39.8 | 0.398 | > 50.1 |
| C=CCOCC1Cn2nc([N+](=O)[O-])nc2O1 (stereo not drawn) | > 50.1 | 0.501 | > 50.1 | 0.631 | 1.26 | > 50.1 | > 100 | > 50.1 | > 100 | > 39.8 | > 39.8 | > 50.1 | > 50.1 |
| Cc1ccc(NC(=O)c2ccc(Cl)c(NC(=O)c3ccc([N+](=O)[O-])cc3)c2)cc1 | 20 | 0.631 | > 50.1 | 0.2 | 0.501 | > 50.1 | > 100 | > 50.1 | > 100 | 7.94 | 15.8 | > 50.1 | > 50.1 |
| C=CCn1nc([N+](=O)[O-])nc1Oc1ccc(Cl)cc1Cl | 50.1 | 0.251 | > 50.1 | 0.126 | 0.251 | > 50.1 | > 100 | 39.8 | 20 | 20 | > 39.8 | > 50.1 | 39.8 |
| Cc1c(C#N)c([N+](=O)[O-])nn1Cc1cccc(Cl)c1Cl | 39.8 | 0.2 | > 50.1 | 0.0398 | 0.1 | > 50.1 | 79.4 | 15.8 | > 100 | 15.8 | 25.1 | > 50.1 | 15.8 |
| Cc1c(CNC(=O)c2ccc(Cn3cc(Cl)c([N+](=O)[O-])n3)cc2)cnn1C | > 50.1 | 1 | > 50.1 | 0.794 | 1.58 | > 50.1 | > 100 | > 50.1 | > 100 | 5.01 | 10 | > 50.1 | > 50.1 |
| Cc1c([N+](=O)[O-])c(C(=O)Nc2sc3c(c2C#N)CCC(C)C3)nn1C (stereo not drawn) | 12.6 | 2.51 | > 50.1 | 1.58 | 2.51 | 31.6 | > 100 | 15.8 | > 100 | > 39.8 | > 39.8 | 25.1 | > 50.1 |
| O=C(Nc1ccc(Br)cn1)c1ccc(Cn2cnc([N+](=O)[O-])n2)cc1 | > 50.1 | 0.158 | > 50.1 | 0.0794 | 0.126 | > 50.1 | > 100 | > 50.1 | > 100 | 1.58 | 3.16 | > 50.1 | > 50.1 |
| CC1=NN(C(=O)CCn2cnc([N+](=O)[O-])n2)C(O)(C(F)(F)F)C1 (stereo not drawn) | > 50.1 | 2 | > 50.1 | 1.26 | 6.31 | > 50.1 | > 100 | > 50.1 | > 100 | > 39.8 | > 39.8 | > 50.1 | > 50.1 |
| O=C(c1cc2cc(Cl)ccc2[nH]1)N1CCCCC1c1cccnc1 (stereo not drawn) | 39.8 | 0.251 | 31.6 | 0.126 | 0.126 | 31.6 | 39.8 | 10 | 0.0631 | 25.1 | 15.8 | 50.1 | 15.8 |
| O=S(=O)(c1ccccc1C(F)(F)F)N1CCN(Cc2ccc(-n3ccnc3)cc2)CC1 | > 50.1 | 0.251 | > 50.1 | 0.2 | 0.251 | > 50.1 | > 100 | 25.1 | 0.1 | > 39.8 | > 39.8 | 6.31 | 15.8 |
| O=S(=O)(NCC(c1cccnc1)N1CCN(c2ccccc2F)CC1)c1ccc(F)cc1 (stereo not drawn) | > 50.1 | 0.501 | > 50.1 | 0.2 | 0.2 | > 50.1 | > 100 | 3.98 | 0.0794 | 25.1 | > 39.8 | 3.98 | > 50.1 |
